Laboratory results published in patent publication US8426569B2, “DNA capable of being amplified by PCR with high selectivity and high efficiency” (Riken, priority 2008, dated 2013).

Columns and labels:
[1] = target: Klenow fragment of DNA polymerase I (KF exo-) (Escherichia coli, UniProt P00582, D355A/E357A)
DeepVent DNA polymerase [2] = target: T1, DeepVent DNA polymerase (Pyrococcus sp., UniProt Q51334, DEL493-1029); format: biochemical
DeepVent DNA polymerase [3] = target: T1, DeepVent DNA polymerase; format: biochemical; remark: listed apart in the source

T1 sequence (Q51334 with tags, fused parts or gaps DEL493-1029): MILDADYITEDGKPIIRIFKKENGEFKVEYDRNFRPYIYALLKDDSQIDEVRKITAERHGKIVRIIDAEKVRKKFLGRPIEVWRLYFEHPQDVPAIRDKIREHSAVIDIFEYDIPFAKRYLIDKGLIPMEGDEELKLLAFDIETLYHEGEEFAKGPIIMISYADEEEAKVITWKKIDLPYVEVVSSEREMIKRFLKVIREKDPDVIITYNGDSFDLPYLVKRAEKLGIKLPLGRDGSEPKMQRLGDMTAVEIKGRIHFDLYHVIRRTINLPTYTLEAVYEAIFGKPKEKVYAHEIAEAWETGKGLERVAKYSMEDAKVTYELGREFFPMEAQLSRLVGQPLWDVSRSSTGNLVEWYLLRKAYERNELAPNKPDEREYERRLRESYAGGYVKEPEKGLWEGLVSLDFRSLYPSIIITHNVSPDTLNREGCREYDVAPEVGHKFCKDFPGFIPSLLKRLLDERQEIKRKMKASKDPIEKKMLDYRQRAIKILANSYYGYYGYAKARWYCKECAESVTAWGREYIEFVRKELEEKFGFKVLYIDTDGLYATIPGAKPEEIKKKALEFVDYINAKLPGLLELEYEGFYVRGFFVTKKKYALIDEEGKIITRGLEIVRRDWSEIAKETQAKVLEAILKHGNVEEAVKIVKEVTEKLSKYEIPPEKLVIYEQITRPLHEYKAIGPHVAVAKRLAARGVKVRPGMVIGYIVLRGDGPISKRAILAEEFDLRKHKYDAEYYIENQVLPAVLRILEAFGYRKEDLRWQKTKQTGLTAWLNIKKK
Klenow fragment of DNA polymerase I (KF exo-), sequence (P00582 324-928 D355A/E357A limits assumed): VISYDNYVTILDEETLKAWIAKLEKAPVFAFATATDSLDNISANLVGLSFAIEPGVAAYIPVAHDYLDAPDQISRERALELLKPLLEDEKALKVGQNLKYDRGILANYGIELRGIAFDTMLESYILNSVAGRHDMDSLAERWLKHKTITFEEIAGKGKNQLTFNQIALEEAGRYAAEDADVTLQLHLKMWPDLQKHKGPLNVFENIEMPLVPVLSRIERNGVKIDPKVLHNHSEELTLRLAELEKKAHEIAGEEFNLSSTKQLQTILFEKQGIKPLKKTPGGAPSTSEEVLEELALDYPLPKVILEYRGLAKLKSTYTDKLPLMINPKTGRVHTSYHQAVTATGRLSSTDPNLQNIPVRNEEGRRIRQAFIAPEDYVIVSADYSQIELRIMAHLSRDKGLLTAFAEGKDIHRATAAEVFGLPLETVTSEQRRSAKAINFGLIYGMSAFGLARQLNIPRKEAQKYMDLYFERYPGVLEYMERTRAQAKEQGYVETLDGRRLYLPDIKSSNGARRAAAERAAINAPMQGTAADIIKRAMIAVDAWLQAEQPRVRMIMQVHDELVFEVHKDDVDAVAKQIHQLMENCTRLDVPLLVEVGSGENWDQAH

NCCCCCC(=O)NCC#Cc1cc([N+](=O)[O-])n([C@H]2C[C@H](O)[C@@H](COP(=O)(O)OP(=O)(O)OP(=O)(O)O)O2)c1 [NH2-hx-dPnTP, 1-(2-deoxy-β-D-ribofuranosyl)-4-[3-(6-amino-hexanamide)-1-propynyl]-2-nitropyrrole 5′-triphosphate]
incorporation efficiency into Ds relative to that of the Pn substrate [1]: about twice
incorporation efficiency into natural bases in the template strand [1]: lower than the incorporation efficiency into Ds
conservation of both two sites of the unnatural base Ds in DNA (sequencing pattern analysis) (DeepVent DNA polymerase [2]): almost completely conserved
amplification of the DNA fragment containing Ds (DeepVent DNA polymerase [3]): about 10^8 times
conservation of the unnatural base Ds in DNA (sequencing analysis) (DeepVent DNA polymerase [3]): almost completely conserved
